Measurements as given in patent US4661505A, “Leukotriene antagonists” (Eli Lilly and Company, priority 1982, dated 1987).

Tests used:
Type in all cases: cell-based
[1] = target: T1, LTD4 evoked ileal contractions (Cavia porcellus, UniProt Q2NNR5); test: Antagonism of LTD4-evoked contraction of isolated guinea pig ileum (single concentration); details: pure LTD4, 5 minute exposure, read-out: Percent Inhibition of LTD4 evoked ileal contractions; for inhibition at 1 µM: 1 × 10^-6 M; for inhibition at 3 µM: 3 × 10^-6 M; for inhibition at 10 µM: 1 × 10^-5 M
T1 construct: A section of terminal ileum was removed, the lumen cleaned, and the tissue divided into 2.5 cm. segments; from tissue; host or cells: terminal ileum of male Hartley guinea pigs
T1 sequence (Q2NNR5 1-340): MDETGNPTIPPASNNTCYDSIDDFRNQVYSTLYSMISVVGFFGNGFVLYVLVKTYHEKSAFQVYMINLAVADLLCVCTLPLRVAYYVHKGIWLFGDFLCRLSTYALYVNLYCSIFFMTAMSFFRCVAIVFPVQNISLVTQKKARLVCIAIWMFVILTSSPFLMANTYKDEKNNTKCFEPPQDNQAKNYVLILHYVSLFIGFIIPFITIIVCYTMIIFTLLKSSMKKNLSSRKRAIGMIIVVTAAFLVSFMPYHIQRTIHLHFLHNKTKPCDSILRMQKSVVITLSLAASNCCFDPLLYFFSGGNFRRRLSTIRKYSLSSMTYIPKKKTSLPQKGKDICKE
Protocol: (§1) Male, Hartley guinea pigs weighing 200-450 grams were killed by decapitation. A section of terminal ileum was removed, the lumen cleaned, and the tissue divided into 2.5 cm. segments. The ilea were mounted in 10 ml. tissue baths containing Krebs-bicarbonate solution of the following composition in mmoles/liter: KCl, 4.6; CaCl2.2H2 O, 1.2; KH2 PO4, 1.2; MgSO4.7H2 O, 1.2; NaCl, 118.2; NaHCO3, 24.8 and dextrose, 10.0. The bath fluid was maintained at 37° C. and aerated with 95 percent oxygen and 5 percent CO2. In addition, the buffer contained 1×10^-6 M atropine to reduce ileal spontaneous activity. In studies with crude SRS-A, 1×10^-6M pyrilamine was used to mitigate the actions of histamine present along with the biologically active leukotrienes. Isometric measurements were made with a Grass FTO3C force-displacement transducer and recorded on a Grass polygraph as change in grams of force. A passive force of 0.5 g. was applied to the tissues. After an appropriate equilibration period, single submaximal control responses to either SRS-A or pure LTD4 were obtained. Following a 5 minute exposure of the ileum to an experimental drug, the control concentration of SRS-A or LTD4 was added to the tissue bath. The response of the ileum to SRS-A or LTD4 in the presence of the drug was compared to the response in the absence of the drug.
(§2) *Compounds marked with an asterisk were tested using crude SRSA as the
(§3) ileumcontracting agent; all other compounds were tested using pure

[2] = target: T1, LTD4 evoked ileal contractions; test: LTD4 antagonism, cumulative concentration-response curves in guinea pig ileum and trachea (pA2); details: 30 minute incubation with antagonist, Furchgott method
Protocol: For some of the drugs in this series a more detailed analysis of LTD4 antagonism was made. In these experiments, cumulative concentration-response curves were obtained to LTD4 in guinea pig ileum and trachea. This was followed by a 30 minute incubation with various concentrations of the experimental drug. The concentration response curve to LTD4 was then repeated in the presence of the antagonist. Only one concentration of antagonist was used on a single tissue. KB values were calculated by the method of Furchgott [Ann. N.Y. Acad. Sci., 139, 553 (1967)]using the following equation. [formula] Dose ratio refers to the concentration of agonist required to elicit 50 percent of the maximal response (ED50) in the presence of the antagonist divided by the ED50 in the absence of the antagonist. Calculations were performed with the aid of a computer and a digital plotter.

[3] = tested on: SRS-A evoked ileal contractions; test: Antagonism of crude SRS-A-evoked contraction of isolated guinea pig ileum (single concentration); details: Cavia porcellus, 5 min, 5 minute exposure, pyrilamine 1×10^-6 M, read-out: Percent Inhibition of SRS-A evoked ileal contractions; for inhibition at 3 µM: 3 × 10^-6 M
Protocol: as §1, §2, §3

| SMILES | inhibition at 1 µM [1] [%] | inhibition at 3 µM [1] [%] | Kb [2] [nM] | inhibition at 10 µM [1] [%] | inhibition at 3 µM [3] [%] | inhibition at 10 µM ([3]; 1 × 10^-5 M) [%] |
| --- | --- | --- | --- | --- | --- | --- |
| CCCc1c(OCCCCCCCc2nnn[nH]2)ccc(C(C)=O)c1O [Example 10, 5-[7-(4-Acetyl-3-hydroxy-2-propylphenoxy)heptyl]-tetrazole] | 92 | 95 | 79.4 | – | – | – |
| CCCc1c(OCCCCCCc2nnn[nH]2)ccc(C(C)=O)c1O [Example 9, 5-[6-(4-Acetyl-3-hydroxy-2-propylphenoxy)hexyl]-tetrazole] | 87 | 100 | 79.4 | – | – | – |
| CCCc1c(OCCCCCCCCc2nnn[nH]2)ccc(C(C)=O)c1O [Example 11, 5-[8-(4-Acetyl-3-hydroxy-2-propylphenoxy)octyl]-tetrazole] | 89 | 100 | 316 | – | – | – |
| CCCc1c(OCCCCCCCCCCc2nnn[nH]2)ccc(C(C)=O)c1O [Example 13, 5-[10-(4-Acetyl-3-hydroxy-2-propylphenoxy)decyl]-tetrazole] | 76 | 93 | 316 | – | – | – |
| CCCc1c(OCCCCCc2nnn[nH]2)ccc(C(C)=O)c1O [Example 22, 5-[5-(4-Acetyl-3-hydroxy-2-propylphenoxy)pentyl]-tetrazole] | – | 87 | 263 | – | – | – |
| CC(=O)c1ccc(OC(CCCCC(=O)O)c2ccccc2)cc1O (stereo not drawn) [Example 20, 6-(4-Acetyl-3-hydroxyphenoxy)-6-phenyl-hexanoic acid] | – | – | – | – | 20 | – |
| CCCc1c(OCCCCCC(=O)O)ccc(C(C)=O)c1O [Example 24, 6-(4-Acetyl-3-hydroxy-2-propylphenoxy)hexanoic acid] | – | 81 | 398 | – | – | – |
| CCCc1c(OCCCCCCCCCc2nnn[nH]2)ccc(C(C)=O)c1O [Example 12, 5-[9-(4-Acetyl-3-hydroxy-2-propylphenoxy)nonyl]-tetrazole] | 78 | 90 | 316 | – | – | – |
| CC(=O)c1ccc(OCCCCCC(=O)O)cc1O [Example 25, 6-(4-Acetyl-3-hydroxyphenoxy)hexanoic acid] | – | – | – | – | 11 | – |
| CCCc1c(OC(CCCCC(=O)O)c2ccc(-c3ccccc3)cc2)ccc(C(C)=O)c1O (stereo not drawn) [Example 17, 6-(4-Acetyl-3-hydroxy-2-propylphenoxy)-6-(4-biphenyl)hexanoic acid] | – | – | – | – | – | 44 |

Second part, led by results:

| inhibition at 1 µM [1] [%] | inhibition at 3 µM [1] [%] | Kb [2] [nM] | inhibition at 10 µM [1] [%] | SMILES | inhibition at 3 µM [3] [%] | inhibition at 10 µM ([3]; 1 × 10^-5 M) [%] |
| --- | --- | --- | --- | --- | --- | --- |
| – | – | 1580 | – | CCCc1c(OCCCCC(=O)O)ccc(C(C)=O)c1O [Example 28, 5-(4-Acetyl-3-hydroxy-2-propylphenoxy)pentanoic acid] | 61 | – |
| 82 | – | 158 | 100 | CCCc1c(OCCCCCSc2nn[nH]n2)ccc(C(C)=O)c1O [Example 68, 5-[5-(4-Acetyl-3-hydroxy-2-propylphenoxy)pentanethio]-tetrazole] | – | – |
| 47 | – | 1120 | – | CCCc1c(OCCSc2nn[nH]n2)ccc(C(C)=O)c1O [Example 58, 5-[2-(4-Acetyl-3-hydroxy-2-propylphenoxy)ethanethio]-tetrazole] | – | – |
| 95 | – | 31.6 | – | CCCc1c(OCCCSc2nn[nH]n2)ccc(C(C)=O)c1O [Example 59, 5-[3-(4-Acetyl-3-hydroxy-2-propylphenoxy)propanethio]-tetrazole] | – | – |
| – | 56 | 794 | 88 | CCCc1c(OCCCCCC(=O)O)ccc(C(=O)CC)c1O [Example 34, 6-(4-Propionyl-3-hydroxy-2-propylphenoxy)hexanoic acid] | – | – |
| – | 45 | 1580 | 79 | CCCc1c(OC(C)CCCCC(=O)O)ccc(C(C)=O)c1O (stereo not drawn) [Example 40, 6-(4-Acetyl-3-hydroxy-2-propylphenoxy)heptanoic acid] | – | – |
| 50 | – | 501 | 100 | CCCc1c(OCCCCCCCCSc2nn[nH]n2)ccc(C(C)=O)c1O [Example 73, 5-[8-(4-Acetyl-3-hydroxy-2-propylphenoxy)octanethio]-tetrazole] | – | – |
| 51 | – | 2000 | 94 | CCCc1c(OCCCCCCCCC(=O)O)ccc(C(C)=O)c1O [Example 31, 9-(4-Acetyl-3-hydroxy-2-propylphenoxy)nonanoic acid] | – | – |
| 87 | – | 100 | – | CCCc1c(OCCCCSc2nn[nH]n2)ccc(C(C)=O)c1O [Example 57, 5-[4-(4-Acetyl-3-hydroxy-2-propylphenoxy)butanethio]-tetrazole] | – | – |
